The record followed here is US8207159B2, “Use of galanthamine for the treatment of pathological manifestations of the central nervous system based on intoxications with psychotropic substances” (priority 2001, dated 2012).

Structures are written as SMILES.

Assay [1] has as its system chronically dependent alcoholics. In words: Clinical studies on chronically dependent alcoholics, cognitive performance. Format: in vivo, human. From the text:
(§1) A further advantage in this connexion is in particular that better control over the addictive behaviour is made possible, so that the risk of relapse is reduced.

The test system of another assay is rats. Kind of assay: Animal experiments: administration of galanthamine to rats, cognitive abilities. The format is in vivo, rat. Conditions: restoration did not occur, or occurred only considerably later, in untreated control animals.
From the text: as §1

For `COc1ccc2c3c1O[C@H]1C[C@@H](O)C=C[C@@]31CCN(C)C2` [galanthamine, 4a,5,9,10,11,12-hexahydro-3-methoxy-11-methyl-6-H-benzofuro-(3a,3,2-ef)-(2)-benzazepin-6-ol], in assay [1], the “cognitive performance of the subjects” value was “general improvement in the cognitive performance”. Also, the “recovery of cognitive abilities” value with rats is reported as “recovery of cognitive abilities”.
